Laboratory results as given in patent US20140271584A1, “Methods and Compositions for Direct Reprogramming of Somatic Cells to Stem Cells, and Uses of these Cells” (THE RESEARCH FOUNDATION FOR THE STATE UNIVERSITY OF NEW YORK, priority 2013, published 2014).

Test system: AF cells
Experiment: Colony formation of OCT4 lentivirus-transduced AF cells in ES or endothelial cell medium
Format: cell-based, human
Experimental: Transduction via integrating plasmid. Lentivirus based vectors carrying human SOX2 or OCT4 gene, or GFP only gene, each expressed under control of either the SFFV promoter or EF1α promoter, were packaged using the 293FT cell line (Invitrogen/Life Technologies, Inc.) to produce lentivirus. The viruses were concentrated by centrifugation and stored at −80° C. One day before infection, tissue culture dishes were coated with poly-L-ornithine (PLO) and laminin AF, BM, or HFF cells were seeded at a density of 15,000 cells/cm^2. Lentiviruses were added at a MOI of 10-100 in the presence of 8 μg/ml polybrene (EMD Millipore, Billerica, Mass.) for 6 hours. Efficiency was measured after 24-48 hours by expression of green fluorescence.
After viral transduction, cells were transferred to human ES (embryonic stem cell) medium (supplemented with 20% Knockout Serum replacement, 2 mM glutamine, 0.1 mM non-essential amino acids, 10 ng/ml bFGF, 100 μM β-Mercaptoethanol) or endothelial cell medium, such as EGM2 (Lonza, Inc.).

| Structure (SMILES) | increase of the efficiency of colony formation (accelerated and increased) (10 μM in the culture media) | increase of the efficiency of colony formation (accelerated and increased) (0.1 mM in the culture media) |
| --- | --- | --- |
| Cc1cccc(-c2n[nH]cc2-c2ccc3ncccc3n2)n1 [compound 616452, 2-(3-(6-Methylpyridin-2-yl)-1H-pyrazol-4-yl)-1,5-naphthyridine] | approximately 15% | – |
| Nc1ncnc2c1nc(Br)n2[C@@H]1O[C@@H]2COP(=O)(O)O[C@H]2[C@H]1O [8-Br-cAMP, (1S,6R,8R,9R)-8-(6-amino-8-bromopurin-9-yl)-3-hydroxy-3-oxo-2,4,7-trioxa-3λ5-phosphabicyclo[4.3.0]nonan-9-ol] | – | approximately 15% |
